From patent publication US9018391B2, “Inhibitors of beta-secretase” (Boehringer Ingelheim International GmbH, priority 2012, dated 2015)

How the values were obtained:
[1] = system: Human Hepatocytes; assay: In Vitro Hepatocyte Stability Assay (Assay 4); assay type: in vitro ADME; details: predicted blood clearance as percent of hepatic blood flow
Procedure: In Vitro Hepatocyte Stability Assay (Assay 4)
The metabolic degradation of test compounds was assayed in a hepatocyte suspension. Cryopreserved hepatocytes were incubated in an appropriate buffer system (e.g., Dulbecco's modified eagle medium plus 3.5 μg glucagon/500 mL, 2.5 mg insulin/500 mL and 3.75 mg/500 mL hydrocortison) containing 5% species serum. Following a 30 min preincubation in an incubator (37° C., 10% CO2), 5 μl of test compound solution (80 μM; from 2 mM in DMSO stock solution diluted 1:25 with medium) were added into 395 μl hepatocyte suspension (cell density in the range 0.25−5×10^6 cells/mL, typically 1×10^6 cells/mL; final concentration of test compound final DMSO concentration […]).
The cells were incubated for six h (incubator, orbital shaker) and samples (25 μl) were taken at 0, 0.5, 1, 2, 4 and 6 h. Samples were transferred into acetonitrile and pelleted by centrifugation (5 min). The supernatant was transferred to a new 96 DeepWell™ plate, evaporated under nitrogen and resuspended. Decline of compound was analyzed by HPLC-MS/MS. CLint (in vitro hepatic intrinsic clearance) was calculated as follows: CLint=Dose/AUC=(C0/CD)/(AUD+Clast/k)×1000/60
C0: initial concentration in the incubation [μM];
CD: cell density of vital cells [cells/mL];
AUD: area under the data [μM×h];
Clast: concentration of last data point [μM];
k: slope of the regression line for compound decline [h^−1].
The calculated in vitro hepatic intrinsic clearance was scaled up to the intrinsic in vivo hepatic clearance (Clint in vivo) and used to predict hepatic in vivo blood clearance (CL) by the use of a liver model (well-stirred model), as follows: CLint,in vivo[mL/min/kg]=(CLint[μL/min/10^6 cells]×hepatocellularity[10^6 cells/g liver]×liver factor [g/kg body weight])/1000 CL[mL/min/kg]=CLint,to vivo×hepatic blood flow[ml/min/kg]/(CLint,in vivo[ml/min/kg]+hepatic blood flow[mL/min/kg])
The in vivo blood clearance was transformed into percent of the hepatic blood flow (% Qh): % Qh=CL[mL/min/kg]/hepatic blood flow[mL/min/kg])×100
Hepatocellularity, human: 1.2×10^7 cells/g liver;
Liver factor, human: 25.7 g/kg body weight;
Hepatic blood flow, human: 21 mL/(min×kg).

[2] = In Vitro Phospholipidosis Assay (Assay 3), Nile red staining; assay type: cell-based, human; details: human, first effect concentration, U937 cells, read-out: Phospholipidosis FEC IC50 μM (assay 3)
Procedure: In Vitro Phospholipidosis Assay (Assay 3)
The phospholipidogenic potential of test compounds was assayed using the human hematopoetic U937 cell line. The test principle was to analyze the phospholipid content by staining the cells with the fluorescent dye Nile red.
U937 cells were seeded into cell culture plates at 0.5×10^6 cells/mL in RPMI medium containing 10% FBS, 1% DMSO, and 0.005% gentamicin. The cells were cultivated with or without different concentrations of test compound for 48 h under standard culture conditions.
For harvesting, the cells were centrifuged at 130×g for 4 min and washed once with PBS. Then, 2×0.5 mL cell suspensions were prepared for non-fixed cell measurement (0.5 mL for propidium iodide (PI) viability measurement and 0.5 mL for Nile red measurement).
The remaining cells were fixed with 3.7% formaldehyde for 30 min. After a further centrifugation step, cells were resuspended with 1.3 mL Nile red working solution (1 μg/mL) and incubated for 5 min at rt. The cell suspension was washed twice with 3 mL PBS and centrifuged with 130×g for 4 min. The supernatant was discarded and the cells were resuspended with 0.5 mL PBS and kept for flow cytometry measurement.
For Nile red staining of the 0.5 mL non-fixed cell samples, 50 μL of a ready to use Nile red solution (10 μg/mL) were added per sample. Samples were kept on ice for 5 min. Thereafter, they were washed once with 4 mL PBS (4° C., 250×g for 8 min) and finally resuspended in 400 μL PBS and kept for flow cytometry measurement.
For the viability measurement, 12.5 μL of the ready to use PI solution (10 μg/mL) were added to the 0.5 mL non-fixed cell suspension. After 15 min of incubation on ice, the samples were measured by flow cytometry using a Coulter Epics XL/MCL flow cytometer.
The viability of the cells of each sample was determined by flow cytometry measurement of the PI content at channel 2 (568-590 nm). Cut-off gates for the fluorescence-dependent differentiation between live and dead cells were defined based on the analysis of cell culture medium control samples.
Only samples with a cell viability of >=90% relative to control samples were analyzed for phospholipidosis. Each Nile red sample (non-fixed and fixed samples) was measured by flow cytometry at channel 1 (504-541 nm) and channel 4 (660-680 nm).
For each channel, relative Nile red fluorescence intensity of a test sample was calculated compared to control samples and expressed as a percentage of control fluorescence intensity. The assessment of the phospholipidogenic potential and the first effective concentration (FEC) of a test compound was done manually based on the fluorescence intensities at both wavelengths for the fixed cells, as well as for the non-fixed cells.

| SMILES | In vitro Human Hepatocytes % Qh @ 1 μM (assay 4) [1] | IC50 at 48 h [2] |
| --- | --- | --- |
| CC[C@@H]1C[C@]2(CC[C@H]1O)Cc1ccc(C#N)cc1[C@]21N=C(N)N(CC(C)(C)F)C1=O [Example 9] | 12.4 % Qh | 400 µM |
| C[C@@H]1C[C@@]2(Cc3ccc(C#N)cc3[C@]23N=C(N)N(CC(C)(C)F)C3=O)C[C@H](C)[C@H]1O [Example 2] | 1.6 % Qh | 400 µM |
| C[C@@H]1C[C@@]2(Cc3ccc(C#N)cc3[C@]23N=C(N)N(CC2(F)CCOCC2)C3=O)C[C@H](C)[C@H]1O [Example 4] | 6.1 % Qh | 800 µM |

The next lines start with results.

| In vitro Human Hepatocytes % Qh @ 1 μM (assay 4) [1] | SMILES | IC50 at 48 h [2] |
| --- | --- | --- |
| 0 % Qh | C[C@@H]1C[C@@]2(Cc3ccc(C#N)cc3[C@]23N=C(N)N(CCC(F)(F)F)C3=O)C[C@H](C)[C@H]1O [Example 1] | 400 µM |
| 13 % Qh | CC[C@@H]1C[C@@]2(Cc3ccc(C#N)cc3[C@]23N=C(N)N(CC(C)(C)F)C3=O)C[C@H](C)[C@H]1O [Example 7] | 400 µM |
